Test results from ChEMBL document CHEMBL1201862, “PubChem BioAssay data set” (2004).
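Step 1: Grow cells in 96-well plates. Step 2: Expose to compound for 48 hours at 5 concentrations. Step 3: Interpolate endpoints linearly; if unreached, use highest concentration. At the GI50, growth is halved.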 Calls of active or inactive are those of the source. No stated cut-off is given here; in the data, active = GI50 up to about 1.1 µM and inactive = higher.

Tests used:
Test in all cases: NCI-60 cell line screen, 48 h
KM12 = system: KM12
SW-620 = system: SW-620
SN12C = system: SN12C
MDA-MB-231 = system: MDA-MB-231
PC-3 = system: PC-3
M14 = system: M14
OVCAR-8 = system: OVCAR-8
HCC 2998 = system: HCC 2998
SF-295 = system: SF-295
UACC-257 = system: UACC-257
Hs-578T = system: Hs-578T
SF-268 = system: SF-268
SNB-19 = system: SNB-19
CCRF-CEM = system: CCRF-CEM
NCI-H522 = system: NCI-H522
TK-10 = system: TK-10
HOP-62 = system: HOP-62
ACHN = system: ACHN
A549 = system: A549
U-251 = system: U-251
HCT-15 = system: HCT-15
K562 = system: K562
NCI-H23 = system: NCI-H23
SK-MEL-28 = system: SK-MEL-28
SF-539 = system: SF-539
NCI-H460 = system: NCI-H460
SNB-75 = system: SNB-75
MOLT-4 = system: MOLT-4
HL-60 = system: HL-60
OVCAR-5 = system: OVCAR-5
SK-OV-3 = system: SK-OV-3
UACC-62 = system: UACC-62
HT-29 = system: HT-29
CAKI-1 = system: CAKI-1
IGROV-1 = system: IGROV-1
MDA-MB-435 = system: MDA-MB-435
MCF7 = system: MCF7
HOP-92 = system: HOP-92
EKVX = system: EKVX
DU-145 = system: DU-145
RXF 393 = system: RXF 393
OVCAR-3 = system: OVCAR-3
RPMI-8226 = system: RPMI-8226
T47D = system: T47D
HCT-116 = system: HCT-116
MDA-N = system: MDA-N
SR = system: SR
BT-549 = system: BT-549
Malme-3M = system: Malme-3M
LOX IMVI = system: LOX IMVI
A498 = system: A498
SK-MEL-2 = system: SK-MEL-2
COLO 205 = system: COLO 205
SK-MEL-5 = system: SK-MEL-5
NCI-H226 = system: NCI-H226
UO-31 = system: UO-31
786-0 = system: 786-0
OVCAR-4 = system: OVCAR-4
NCI/ADR-RES = system: NCI/ADR-RES

## COc1cccc(C2c3cc4c(cc3OC(NNS(=O)(=O)c3ccc(C)cc3)C2C)OCO4)c1O (configuration not stated)
KM12
  GI50: 20.3 µM (inactive)
SW-620
  GI50: 23 µM (inactive)
SN12C
  GI50: 37 µM (inactive)
MDA-MB-231
  GI50: 20.4 µM (inactive)
PC-3
  GI50: 12.4 µM (inactive)
M14
  GI50: 24.7 µM (inactive)
OVCAR-8
  GI50: 1.69 µM (inactive)
HCC 2998
  GI50: 31.1 µM (inactive)
SF-295
  GI50: 20.8 µM (inactive)
UACC-257
  GI50: 19.7 µM (inactive)
Hs-578T
  GI50: 12.8 µM (inactive)
SF-268
  GI50: 41.9 µM (inactive)
SNB-19
  GI50: 28.3 µM (inactive)
CCRF-CEM
  GI50: 10 µM (inactive)
NCI-H522
  GI50: 11.4 µM (inactive)
TK-10
  GI50: 31.8 µM (inactive)
HOP-62
  GI50: 22.3 µM (inactive)
ACHN
  GI50: 23.6 µM (inactive)
A549
  GI50: 18.6 µM (inactive)
U-251
  GI50: 22.3 µM (inactive)
HCT-15
  GI50: 23.5 µM
K562
  GI50: 10.2 µM (inactive)
NCI-H23
  GI50: 29.2 µM (inactive)
SK-MEL-28
  GI50: 25.5 µM (inactive)
SF-539
  GI50: 21.6 µM (inactive)
NCI-H460
  GI50: 21.8 µM (inactive)
SNB-75
  GI50: 11.2 µM (inactive)
MOLT-4
  GI50: 10.7 µM (inactive)
HL-60
  GI50: 18 µM (inactive)
OVCAR-5
  GI50: 52.4 µM (inactive)
SK-OV-3
  GI50: 38.8 µM (inactive)
UACC-62
  GI50: 22 µM (inactive)
HT-29
  GI50: 17.9 µM (inactive)
CAKI-1
  GI50: 24.2 µM (inactive)
IGROV-1
  GI50: 26.9 µM (inactive)
MDA-MB-435
  GI50: 23.4 µM (inactive)
MCF7
  GI50: 18.7 µM (inactive)
HOP-92
  GI50: 33.8 µM (inactive)
EKVX
  GI50: 20.2 µM (inactive)
DU-145
  GI50: 30.5 µM (inactive)
RXF 393
  GI50: 21.3 µM (inactive)
OVCAR-3
  GI50: 18.9 µM (inactive)
RPMI-8226
  GI50: 6.31 µM (inactive)
T47D
  GI50: 18.2 µM (inactive)
HCT-116
  GI50: 15.3 µM (inactive)
MDA-N
  GI50: 24.5 µM (inactive)
SR
  GI50: 6.79 µM (inactive)
BT-549
  GI50: 19.7 µM (inactive)
Malme-3M
  GI50: 23.8 µM (inactive)
LOX IMVI
  GI50: 26.1 µM (inactive)
A498
  GI50: 25.5 µM (inactive)
SK-MEL-2
  GI50: 17.4 µM (inactive)
COLO 205
  GI50: 17.8 µM (inactive)
SK-MEL-5
  GI50: 20.4 µM (inactive)
NCI-H226
  GI50: 27.9 µM (inactive)
UO-31
  GI50: 18.5 µM (inactive)
786-0
  GI50: 0.537 µM (active)

## CC(C)NCCC(O)c1cc2ccccc2o1 (configuration not stated)
KM12
  GI50: > 100 µM (inactive)
SW-620
  GI50: > 100 µM (inactive)
SN12C
  GI50: 30.1 µM (inactive)
MDA-MB-231
  GI50: > 100 µM (inactive)
PC-3
  GI50: > 100 µM (inactive)
M14
  GI50: > 100 µM (inactive)
OVCAR-4
  GI50: > 100 µM (inactive)
OVCAR-8
  GI50: > 100 µM (inactive)
SF-295
  GI50: > 100 µM (inactive)
UACC-257
  GI50: > 100 µM (inactive)
Hs-578T
  GI50: > 100 µM (inactive)
SF-268
  GI50: > 100 µM (inactive)
SNB-19
  GI50: > 100 µM (inactive)
NCI-H522
  GI50: > 100 µM (inactive)
TK-10
  GI50: > 100 µM (inactive)
HOP-62
  GI50: > 100 µM (inactive)
ACHN
  GI50: > 100 µM (inactive)
A549
  GI50: > 100 µM (inactive)
NCI/ADR-RES
  GI50: > 100 µM (inactive)
U-251
  GI50: > 100 µM (inactive)
HCT-15
  GI50: > 100 µM
K562
  GI50: 1.06 µM (active)
NCI-H23
  GI50: > 100 µM (inactive)
SK-MEL-28
  GI50: > 100 µM (inactive)
SF-539
  GI50: > 100 µM (inactive)
NCI-H460
  GI50: > 100 µM (inactive)
SNB-75
  GI50: 7.67 µM (inactive)
MOLT-4
  GI50: 20.4 µM (inactive)
OVCAR-5
  GI50: > 100 µM (inactive)
SK-OV-3
  GI50: > 100 µM (inactive)
UACC-62
  GI50: > 100 µM (inactive)
HT-29
  GI50: > 100 µM (inactive)
CAKI-1
  GI50: > 100 µM (inactive)
IGROV-1
  GI50: > 100 µM (inactive)
MDA-MB-435
  GI50: > 100 µM (inactive)
MCF7
  GI50: > 100 µM (inactive)
HOP-92
  GI50: > 100 µM (inactive)
EKVX
  GI50: > 100 µM (inactive)
DU-145
  GI50: > 100 µM (inactive)
RXF 393
  GI50: > 100 µM (inactive)
OVCAR-3
  GI50: > 100 µM (inactive)
RPMI-8226
  GI50: > 100 µM (inactive)
T47D
  GI50: > 100 µM (inactive)
HCT-116
  GI50: > 100 µM (inactive)
MDA-N
  GI50: > 100 µM (inactive)
BT-549
  GI50: > 100 µM (inactive)
Malme-3M
  GI50: > 100 µM (inactive)
LOX IMVI
  GI50: > 100 µM (inactive)
A498
  GI50: > 100 µM (inactive)
SK-MEL-2
  GI50: > 100 µM (inactive)
COLO 205
  GI50: > 100 µM (inactive)
SK-MEL-5
  GI50: > 100 µM (inactive)
NCI-H226
  GI50: > 100 µM (inactive)
UO-31
  GI50: > 100 µM (inactive)
786-0
  GI50: > 100 µM (inactive)
